# Experimental data from ChEMBL document CHEMBL1149256, “Discovery of 4-aryl-4H-chromenes as a new series of apoptosis inducers using a cell- and caspase-based high-throughput screening assay. 1. Structure-activity relationships of the 4-aryl group” (J Med Chem, 2004).
# Calls of active or inactive are those of the source. The rule behind the calls is not given here.
# Legend:
# T47D [1] = experiment: Induction of apoptosis in human T47D cells assessed as caspase activation after 24 hrs; format: functional, cell-based
# NCI-H1299 = experiment: Induction of apoptosis in human H1299 cells assessed as caspase activation after 24 hrs; format: functional, cell-based; settings: NCI-H1299, 24 h
# DLD-1 [2] = experiment: Induction of apoptosis in human DLD1 cells assessed as caspase activation after 24 hrs; format: functional, cell-based; settings: DLD-1, 24 h
# Jurkat [3] = experiment: Induction of caspase-mediated apoptosis in Jurkat cells at 0.1 uM after 24 hrs by nuclear fragmentation assay; format: functional, cell-based; settings: Homo sapiens
# Jurkat [4] = experiment: Induction of apoptosis in Jurkat cells assessed as PARP cleavage at 2.5 uM; format: functional, cell-based; settings: Homo sapiens, TDE = time-dependent effect
# T47D [5] = experiment: Induction of apoptosis in human T47D cells assessed as accumulation at subG1 phase at 0.1 uM after 24 hrs; format: functional
# T47D [6] = experiment: Induction of apoptosis in human T47D cells assessed as accumulation at G1 phase at 0.1 uM after 24 hrs; format: functional
# T47D [7] = experiment: Induction of apoptosis in human T47D cells assessed as accumulation at S phase at 0.1 uM after 24 hrs; format: functional
# T47D [8] = experiment: Induction of apoptosis in human T47D cells assessed as accumulation at G2/M phase at 0.1 uM after 24 hrs; format: functional
# T47D [9] = experiment: Induction of apoptosis in human T47D cells assessed as accumulation at subG1 phase at 0.1 uM after 48 hrs; format: functional
# T47D [10] = experiment: Induction of apoptosis in human T47D cells assessed as accumulation at G1 phase at 0.1 uM after 48 hrs; format: functional
# T47D [11] = experiment: Induction of apoptosis in human T47D cells assessed as accumulation at S phase at 0.1 uM after 48 hrs; format: functional
# T47D [12] = experiment: Induction of apoptosis in human T47D cells assessed as accumulation at G2/M phase at 0.1 uM after 48 hrs; format: functional
# Tubulin [13] = experiment: Inhibition of tubulin polymerization; format: protein-complex assay, Homo sapiens
# T47D [14] = experiment: Antiproliferative activity against human T47D cells after 48 hrs by MTT assay; format: functional
# DLD-1 [15] = experiment: Antiproliferative activity against human DLD1 cells after 48 hrs by MTT assay; format: functional; settings: DLD-1, 48 h
# T47D [16] = experiment: Ratio of GI50 for human T47D cells to EC50 for human T47D cells; format: functional
# DLD-1 [17] = experiment: Ratio of GI50 for human DLD1 cells to EC50 for human DLD1 cells; format: functional
# Jurkat [18] = experiment: Induction of apoptosis in Jurkat cells assessed as PARP cleavage at 1 uM after 30 hrs; format: functional, cell-based; settings: Homo sapiens
# Tubulin [19] = experiment: Displacement of [3H]colchicine from tubulin; format: protein-complex assay, Homo sapiens
Compound,EC50 (T47D [1]),EC50 (NCI-H1299),EC50 (DLD-1 [2]),also measured
CN(C)c1ccc2c(c1)OC(N)=C(C#N)C2c1cccc(C(=O)O)c1 (centres undefined),> 10000 nM,> 10000 nM,> 10000 nM,
COc1cc(C2(C)C(C#N)=C(N)Oc3cc(N(C)C)ccc32)cc(Br)c1OC (centres undefined),7300 nM,7800 nM,10400 nM,
CN(C)c1ccc2c(c1)OC(N)=C(C#N)C2c1cccc(Cl)c1 (centres undefined),112 nM,514 nM,158 nM,
CN(C)c1ccc2c(c1)OC(N)=C(C#N)C2c1cnc2ccccc2c1 (centres undefined),1820 nM,2230 nM,2740 nM,
CN(C)c1ccc2c(c1)OC(N)=C(C#N)C2c1cccc(C#N)c1 (centres undefined),63 nM,215 nM,82 nM,
COc1cc(C2C(C#N)=C(N)Oc3cc(N(C)C)ccc32)cc2c1OCO2 (centres undefined),,,83 nM,Activity (Jurkat [3]): Active; Activity (Jurkat [4]): tde; Activity (T47D [5]): 4.3%; Activity (T47D [6]): 43.5%; Activity (T47D [7]): 7.6%; Activity (T47D [8]): 44%; Activity (T47D [9]): 12%; Activity (T47D [10]): 11%; Activity (T47D [11]): 18.8%; Activity (T47D [12]): 57%; IC50 (Tubulin [13]): 400 nM
COc1cc2c(c(OC)c1OC)-c1ccc(OC)c(=O)cc1[C@@H](NC(C)=O)CC2 [COLCHICINE],,34 nM,,
CN(C)c1ccc2c(c1)OC(N)=C(C#N)C2c1cccnc1 (centres undefined),68 nM,155 nM,123 nM,
CN(C)c1ccc2c(c1)OC(N)=C(C#N)C2c1cccc(Br)c1 (centres undefined),64 nM,337 nM,87 nM,
COc1cccc(C2C(C#N)=C(N)Oc3cc(N(C)C)ccc32)c1OC (centres undefined),1020 nM,2130 nM,1270 nM,
COc1cccc(C2C(C#N)=C(N)Oc3cc(N(C)C)ccc32)c1 (centres undefined),65 nM,200 nM,81 nM,
CN(C)c1ccc2c(c1)OC(N)=C(C#N)C2CCc1ccccc1 (centres undefined),430 nM,1080 nM,590 nM,
COc1cc(C2C(C#N)=C(N)Oc3cc(N(C)C)ccc32)cc(I)c1OC (centres undefined),18 nM,34 nM,64 nM,
COc1ccc(C2C(C#N)=C(N)Oc3cc(N(C)C)ccc32)cc1OC (centres undefined),253 nM,510 nM,347 nM,
CN(C)c1ccc2c(c1)OC(N)=C(C#N)C2c1cccc(F)c1 (centres undefined),81 nM,304 nM,129 nM,
CN[C@@H]1C[C@H]2O[C@@](C)([C@@H]1OC)n1c3ccccc3c3c4c(c5c6ccccc6n2c5c31)C(=O)NC4,,,,Activity (Jurkat [18]): Active
CN(C)c1ccc2c(c1)OC(N)=C(C#N)C2c1cccc(OC(F)(F)F)c1 (centres undefined),450 nM,1140 nM,457 nM,
COc1cc(C2C(C#N)=C(N)Oc3cc(N(C)C)ccc32)cc(Cl)c1OC (centres undefined),18 nM,36 nM,65 nM,
Cc1cccc(C2C(C#N)=C(N)Oc3cc(N(C)C)ccc32)n1 (centres undefined),244 nM,622 nM,438 nM,
COc1cc(C2C(C#N)=C(N)Oc3cc(N(C)C)ccc32)cc(Br)c1OC (centres undefined),,,,IC50 (Tubulin [19]): 8000 nM
Cc1cncc(C2C(C#N)=C(N)Oc3cc(N(C)C)ccc32)c1 (centres undefined),11 nM,27 nM,18 nM,

# The next lines start with results.
EC50 (T47D [1]),EC50 (NCI-H1299),EC50 (DLD-1 [2]),Compound,also measured
280 nM,560 nM,330 nM,COc1ccccc1C1C(C#N)=C(N)Oc2cc(N(C)C)ccc21 (centres undefined),
1600 nM,2000 nM,2600 nM,COc1ccc(C2C(C#N)=C(N)Oc3cc(N(C)C)ccc32)cc1 (centres undefined),
200 nM,300 nM,270 nM,CN(C)c1ccc2c(c1)OC(N)=C(C#N)C2c1cccs1 (centres undefined),
> 10000 nM,> 10000 nM,> 10000 nM,CCCCCCCCCCCCOc1cccc(C2C(C#N)=C(N)Oc3cc(N(C)C)ccc32)c1 (centres undefined),
25 nM,73 nM,129 nM,CC[C@]1(O)C[C@@H]2CN(CCc3c([nH]c4ccccc34)[C@@](C(=O)OC)(c3cc4c(cc3OC)N(C)[C@H]3[C@@](O)(C(=O)OC)[C@H](OC(C)=O)[C@]5(CC)C=CCN6CC[C@]43[C@@H]65)C2)C1 [VINBLASTINE],
134 nM,420 nM,168 nM,Cc1cccc(C2C(C#N)=C(N)Oc3cc(N(C)C)ccc32)c1 (centres undefined),
1770 nM,2290 nM,3240 nM,COc1cc(OC)c(C2C(C#N)=C(N)Oc3cc(N(C)C)ccc32)cc1OC (centres undefined),
150 nM,240 nM,160 nM,CN(C)c1ccc2c(c1)OC(N)=C(C#N)C2c1cc(Br)cs1 (centres undefined),
272 nM,959 nM,532 nM,CN(C)c1ccc2c(c1)OC(N)=C(C#N)C2c1cccc(O)c1 (centres undefined),
381 nM,855 nM,780 nM,CN(C)c1ccc2c(c1)OC(N)=C(C#N)C2c1ccncc1 (centres undefined),
76 nM,233 nM,242 nM,CN(C)c1ccc2c(c1)OC(N)=C(C#N)C2c1cc(Cl)cc(Cl)c1 (centres undefined),
33 nM,46 nM,26 nM,CN(C)c1ccc2c(c1)OC(N)=C(C#N)C2c1cncc(Br)c1 (centres undefined),
245 nM,754 nM,293 nM,CN(C)c1ccc2c(c1)OC(N)=C(C#N)C2c1cc(Br)c2c(c1)OCO2 (centres undefined),GI50 (T47D [14]): 605 nM; GI50 (DLD-1 [15]): 735 nM; Ratio GI50/EC50 (T47D [16]): 2.5; Ratio GI50/EC50 (DLD-1 [17]): 2.5
31 nM,63 nM,125 nM,COc1cc(Br)cc(C2C(C#N)=C(N)Oc3cc(N(C)C)ccc32)c1 (centres undefined),
41 nM,144 nM,64 nM,COc1cc(C2C(C#N)=C(N)Oc3cc(N(C)C)ccc32)cc(Br)c1O (centres undefined),
3160 nM,3740 nM,5090 nM,COc1ccc(C2C(C#N)=C(N)Oc3cc(N(C)C)ccc32)c(OC)c1OC (centres undefined),
30 nM,163 nM,75 nM,CC(=O)O[C@H]1C(=O)[C@@]2(C)[C@H]([C@H](OC(=O)c3ccccc3)[C@]3(O)C[C@H](OC(=O)[C@H](O)[C@@H](NC(=O)c4ccccc4)c4ccccc4)C(C)=C1C3(C)C)[C@]1(OC(C)=O)CO[C@@H]1C[C@@H]2O [PACLITAXEL],
465 nM,1430 nM,959 nM,CN(C)c1ccc2c(c1)OC(N)=C(C#N)C2c1ccccn1 (centres undefined),
